Non-standard residues stand in square brackets, D forms with d. Residues, ends and D or L forms follow the SMILES beside them.
Tests used:
U-118MG cells = assay: Cell death by PI staining and flow cytometry, U-118MG; type: cell-based, human; conditions: 6 h at 37°C, serum-free medium, means ± SD (n=3), Fig 1H, read-out: IC50 for inducing cell death
Text: Figure 1 VDAC1-based peptides induce dramatic cell death of several brain tumor-derived cell lines but to lesser extent in primary brain cells A. IHC staining of VDAC1 of human normal brain (n=13) or glioblastoma (n=41) in tissue array slides (Biomax), as described in Materials and methods available online in Supplemental information. Percentages of sections stained at the intensity indicated are shown. […] The VDAC1-derived sequences Δ(1-14)N-terminus and LP4 are in green and pink, respectively. The cell-penetrating peptides Antp and Tf are in orange and blue, respectively. The loop shape of LP4 stabilized by a tryptophan zipper is in purple. The amino acids of Δ(1-14)N-terminus, LP4 and Antp are in the D configuration. The sequences of D-LP4 and Retro-D-LP4 are presented below. C. […] Cells were harvested, washed twice with PBS and cell death was analyzed by propidium iodide (PI) staining and flow cytometry. […] Cells were harvested, washed twice with PBS and cell death was analyzed by PI staining and flow cytometry. […]
Cells (6×10^5 /ml) were incubated in 500 μl serum-free medium with the peptide of interest for 6 h at 37°C in the presence of 5% CO2. The cells were then trypsinized, centrifuged (1500xg, 5 min), washed with PBS and analyzed for cell death using propidium iodide (PI) staining and flow cytometer (Beckton-Dickinson, San Jose, CA) and BD CellQuest Pro software. […]

[1] = tested on: cellular ATP levels in U-87MG cells; assay: Cellular ATP levels (CellTiter-Glo); type: cell-based, human; conditions: 3 h, % of control, n=2 or 3
Procedure: Figure 2 Mode of action of VDAC1-based peptides – interacting with- and detaching HK, releasing Cyto c, decreasing ATP level and inducing apoptosis A. Purified HK-II was fluorescently labeled using the NanoTemper protein-labeling Kit BLUE. […] Then, 3-5 μl of the samples were loaded into MST-grade glass capillaries and thermophoresis was measured using a Monolith-NT115 apparatus, as described in Materials and methods available online in Supplemental information. […] The final DMSO concentration in control and peptide-treated cells was 0.07%. Fixed cells were visualized using confocal microscopy (Olympus 1×81), as described in Materials and Methods available online in Supplemental information. […] The levels of HK in the supernatants were quantified and are presented as relative units. D. D-ΔN-Ter-Antp induces mitochondrial inner membrane depolarization analyzed as described in Materials and Methods available online in Supplemental information. […] Cells then were analyzed for Δψ using TMRM. Δψ is presented as percentage of control. […] Release of Cyto c from the mitochondria was analyzed by immunostaining using anti-Cyto c antibodies and confocal microscopy (Olympus 1×81) as described in Materials and Methods available online in Supplemental information. […] Quantification of apoptosis in control and peptide's treated cells are presented bellow the images. […]

## CC[C@@H](C)[C@@H](NC(=O)[C@@H](CCCCN)NC(=O)[C@H](NC(=O)[C@@H](CCC(N)=O)NC(=O)[C@@H](CCCNC(=N)N)NC(=O)[C@@H](CC(C)C)NC(=O)CNC(=O)[C@@H](Cc1ccccc1)NC(=O)CNC(=O)[C@@H](Cc1ccc(O)cc1)NC(=O)CNC(=O)[C@@H](CCCCN)NC(=O)[C@H](NC(=O)[C@@H](Cc1ccccc1)NC(=O)[C@H](NC(=O)[C@@H](CC(=O)O)NC(=O)[C@H](N)CCCNC(=N)N)C(C)C)[C@H](C)O)[C@H](C)CC)C(=O)N[C@H](Cc1c[nH]c2ccccc12)C(=O)N[C@H](Cc1ccccc1)C(=O)N[C@H](CCC(N)=O)C(=O)N[C@H](CC(N)=O)C(=O)N[C@H](CCCNC(=N)N)C(=O)N[C@H](CCCNC(=N)N)C(=O)N[C@H](CCSC)C(=O)N[C@H](CCCCN)C(=O)N[C@H](Cc1c[nH]c2ccccc12)C(=O)N[C@H](CCCCN)C(=O)N[C@H](CCCCN)C(=O)O [D-ΔN-Ter-Antp] (H-[dR][dD][dV][dF][dT][dK]G[dY]G[dF]G[dL][dR][dQ][dI][dK][dI][dW][dF][dQ][dN][dR][dR][dM][dK][dW][dK][dK]-OH; N-terminus and C-terminus assumed)
U-118MG cells
  IC50: 5 ± 0.6 µM
[1]
  decrease in cellular ATP levels: about 80%

## CC[C@H](C)[C@H](NC(=O)[C@H](C)NC(=O)[C@@H](N)Cc1c[nH]cn1)C(=O)N[C@@H](Cc1ccc(O)cc1)C(=O)N1CCC[C@H]1C(=O)N[C@@H](CCCNC(=N)N)C(=O)N[C@@H](Cc1c[nH]cn1)C(=O)N[C@@H](CO)C(=O)N[C@@H](Cc1c[nH]c2ccccc12)C(=O)N[C@H](C(=O)N[C@@H](Cc1c[nH]c2ccccc12)C(=O)N[C@@H](CCC(=O)O)C(=O)N[C@H](CCCCN)C(=O)N[C@H](CCCCN)C(=O)N[C@H](CC(C)C)C(=O)N[C@H](CCC(=O)O)C(=O)N[C@@H](C(=O)N[C@H](C)C(=O)N[C@@H](C(=O)N[C@H](CC(N)=O)C(=O)N[C@H](CC(C)C)C(=O)N[C@H](C)C(=O)N[C@H](Cc1c[nH]c2ccccc12)C(=O)N[C@@H](C(=O)N[C@H](C)C(=O)NCC(=O)N[C@H](CC(N)=O)C(=O)N[C@H](CO)C(=O)N[C@H](CC(N)=O)C(=O)N[C@@H](CCCCN)C(=O)N[C@@H](Cc1c[nH]c2ccccc12)C(=O)N[C@H](C(=O)N[C@@H](Cc1c[nH]c2ccccc12)C(=O)N[C@@H](CCCCN)C(=O)O)[C@@H](C)O)[C@H](C)O)C(C)C)[C@H](C)O)[C@@H](C)O [Tf-D-LP4]
U-118MG cells
  IC50: 1.7 ± 0.3 µM
[1]
  decrease in cellular ATP levels: about 50%
